Here are results for 8 molecules from paper PMC11253858, “New melphalan derivatives for the treatment of retinoblastoma in combination with thermotherapy” (RSC Medicinal Chemistry, 2024).

The test system of data set [1] is myeloma RPMI 8226 cell line. On the set-up: method as in PMID 32161295. The note with it: cited from earlier work.
The subject of data set [2] is Y79 human retinoblastoma cell line. In words: Presto blue cell viability assay in Y79 after 24 hours. In kind it is cell-based. Particulars: for IC50: Homo sapiens; for fold increase in cytotoxicity (lower IC50) compared to melphalan / cytotoxicity at the elevated temperature relative to 37 °C: Y79, 24 hours; for fold increase in cytotoxicity (lower IC50) compared to melphalan: 37 °C; for cytotoxicity at the elevated temperature relative to 37 °C: 42 °C for 1 hour vs 37 °C. How it is done: The IC50 values were determined using the presto blue cell viability assay (Table 1).
(§1) The human retina (RPE1) and retinoblastoma (Y79) cell lines were purchased from ATCC, Switzerland. RPMI 1640, DMEM high glucose Glutamax and DMEM GlutaMAX media were obtained from Life Technologies, and fetal bovine serum (FBS) was obtained from Sigma. Cell culture was performed in RPMI 1640 with 20% FBS and DMEM high glucose Glutamax with 10% FBS for Y79 and RPE1, respectively. Cell passage was performed twice per week using the appropriate medium and the resulting flaks were maintained in a bioincubator (Thermo Scientific, Switzerland) that controlled the humidity and fixed the CO2 rate to 5%. Cell viability tests were conducted in a flat bottomed 96 or 384 well plate using a compound stock solution prepared in dimethyl sulfoxide (DMSO) for all compounds except Cisplatin. The maximum concentration of DMSO in the wells was 0.1% DMSO.
2. Presto Blue cell viability assay in Y79 after 24 hours
The optimization of the starting concentration was carried out for each tested compound after 24 h of incubation. In order to conduct the tests at the mentioned time lapses, Y79’s work cell solutions were prepared at 10 6 cell/mL for the 24 h experiment. The same protocol as described below was used, however in this case, the experiment was conducted […]
3. Presto Blue cell viability assay in Y79 and RPE1 cells at 72 h […]
tests were conducted using cell work solutions at 4x10^5 and 7x10^5 cell/mL respectively and compound stock solutions were prepared at 10 µM in DMSO. The robotic System (Echo 550 […]
LIQUID HANDLER) charged the 384-cell plate with a decreasing volume of each compound’s SS in order to have a concentration gradient that covers 100 to 0.7 µM. DMSO was added to […]
added in the plate using a disperser (Thermo Scientific Multidrop Combi, Switzerland).
(§2) For thermal assays, the plates were placed in a heat chamber at 42 °C for 1 h and then transferred to a bioincubator at 37 °C for 71 h where the control plates were already placed. After 72 h of a total incubation time, […] of presto blue were added to each well and all the plates were incubated for 1 h at 37 °C. For presto blue cell viability assays, gambogic acid was used at 10 µM and represented the positive control, while DMSO at a final concentration of 0.1% presented the negative control. Fluorescence was measured using a […]
(§3) plate reader (Tecan […] F500 reader, Switzerland) at 560 nm for […] and 590 nm for fluorescence. The normalization of the fluorescence’s intensities was conducted with GraphPad software using Gambogic acid and DMSO as positive and negative control, […]

For data set [3], the system named is dsDNA oligonucleotide 5'-AGGCAG-3' (B1) / 3'-TCCGTC-5' (B2). Briefly: DNA binding ESI-MS study with model double stranded oligonucleotide. Particulars: 37 °C, 48 hours incubation; for adduct formation with the dsDNA oligonucleotide (ESI-MS): 1 : 5 ratio. How it is done: The resulting solutions were measured by electrospray ionization mass spectrometry (ESI-MS) and the analysis of the spectra[45] is provided in the ESI ^† and summarised in Fig. 2a.
Furthermore, the relative amount of melphalan derivative-bound dsDNA follows the same trend as the toxicity of the compounds. […] The relative amount of these adducts decreases with the chain length, which could be a consequence of the higher hydrophobicity of the compounds and hint at a higher resistance to hydrolysis. […] No crosslinked DNA adducts, known to be relevant hallmarks in the melphalan mechanism of action, were detected, probably due to the difficulty to observe them upon ionization.[47]

For data set [4], the system named is human retinoblastoma cells (Y79). In words: Presto Blue cell viability assay in Y79 cells at 72 h. In kind it is cell-based. Here is the method:
(§4) The cytotoxicity of the two most promising derivatives, i.e.3d and 3e, was subsequently evaluated on human retinoblastoma (Y79) and healthy human retina (RPE1) immortalised cells after 72 hours of incubation in 2D settings under standard conditions, i.e. at 37 °C and 5% CO2, and also under conditions that mimic mild hyperthermia, i.e. at 42 °C for 1 hour followed by 71 hours at 37 °C, respectively, see Table 2.
as §1, with “DMSO. […]” for “DMSO.”
(§5) 3. Presto Blue cell viability assay in Y79 and RPE1 cells at 72 h
(§6) In order to evaluate the cytotoxicity of 3a-3f on Y79 and RPE1 cell lines, cell viability tests were conducted using cell work solutions at 4x10^5 and 7x10^5 cell/mL respectively and compound stock solutions were prepared at 10 µM in DMSO. The robotic System (Echo 550 […]
(§7) LIQUID HANDLER) charged the 384-cell plate with a decreasing volume of each compound’s SS in order to have a concentration gradient that covers 100 to 0.7 µM. DMSO was added to each well so as to have the same final volume of compound’s solution in each well. Cells were added in the plate using a disperser (Thermo Scientific Multidrop Combi, Switzerland).
as §2, §3

Data set [5] relates to healthy human retina (RPE1) immortalised cells. In words: Presto Blue cell viability assay in RPE1 cells at 72 h. In kind it is cell-based. Particulars: for cytotoxicity to healthy RPE1 cells relative to tumoral Y79 cells (selectivity): 72 hours; for IC50: Homo sapiens, RPE-1. How it is done: as §4
as §1, with “DMSO. […]” for “DMSO.”
as §5, §6, §7, §2, §3

Where [6] appears, read: Y79, 1 hour at 42 °C followed by 23 hours at 37 °C, read-out: IC50 42 °C.
The mark [7] stands for this setting: Y79, 24 hours at 37 °C, 5% CO2, read-out: IC50 37 °C.
Setting [8] is: Y79, 1 hour at 42 °C followed by 71 hours at 37 °C, read-out: Y79 IC50 42 °C.
The mark [9] stands for this setting: Y79, 72 hours at 37 °C, read-out: Y79 IC50 37 °C.
The mark [10] stands for this setting: RPE1, 1 hour at 42 °C followed by 71 hours at 37 °C, read-out: RPE1 IC50 42 °C.
[11] abbreviates: RPE1, 72 hours at 37 °C, read-out: RPE1 IC50 37 °C.

Where “and” joins values, the source holds several entries; their conditions need not be identical. Identical values can stand only once. Like-named read-outs stand apart in the source and are kept apart here.

On to `CCOC(=O)C(N)Cc1ccc(N(CCCl)CCCl)cc1` (stereo not shown) [ethyl ester derivative of melphalan], for which, in data set [1], the IC50 was 1.2 ± 0.3 µM and the “fold increase in cytotoxicity compared to melphalan” value is reported as 8 fold.
Turning to `N[C@@H](Cc1ccc(N(CCCl)CCCl)cc1)C(=O)OCCC(F)(F)C(F)(F)C(F)(F)C(F)(F)F` [Compound 3c], the concentration for half-maximal inhibition (IC50) in data set [2] (setting [6]) amounted to 2.1 ± 0.2 µM; in data set [2] (setting [7]) it was 3.4 ± 0.2 µM.
In the same order, the values of `N[C@@H](Cc1ccc(N(CCCl)CCCl)cc1)C(=O)OCCC(F)(F)F` [Compound 3a] are 1.1 ± 0.1 µM and 1.2 ± 0.1 µM.
For the molecule `Cl.N[C@@H](Cc1ccc(N(CCCl)CCCl)cc1)C(=O)OCCC(F)(F)C(F)(F)C(F)(F)C(F)(F)C(F)(F)C(F)(F)C(F)(F)C(F)(F)C(F)(F)C(F)(F)F` [Compound 3f], in data set [3], the “adduct formation with the dsDNA oligonucleotide (ESI-MS)” value is “no adducts were observed”. Moreover, the IC50 is 183 ± 20 µM in data set [2] (setting [6]) and above 200 µM in data set [2] (setting [7]).
As for `Cl.N[C@@H](Cc1ccc(N(CCCl)CCCl)cc1)C(=O)OCCC(F)(F)C(F)(F)C(F)(F)C(F)(F)C(F)(F)C(F)(F)F` [Compound 3d], the IC50 in data set [4] (setting [8]) was 2.1 ± 0.2 µM; in data set [4] (setting [9]), 2.3 ± 0.1 µM; in data set [2] (setting [6]) it was 3.3 ± 0.2 µM; in data set [2] (setting [7]), 5.9 ± 0.3 µM; in data set [5] (setting [10]), 31.5 ± 2.7 µM; in data set [5] (setting [11]), 39.3 ± 5 µM. Also, in data set [3], the “extent of ester cleavage in oligonucleotide adducts (ESI-MS)” value is given as “more significant”. In addition, the “fold increase in cytotoxicity (lower IC50) compared to melphalan” value in data set [2] was 5 to 10 fold and 10 fold. In addition, in data set [2], the “cytotoxicity at the elevated temperature relative to 37 °C” value is listed as “approximately twice as cytotoxic”. The “cytotoxicity to healthy RPE1 cells relative to tumoral Y79 cells (selectivity)” value in data set [5] is on record as “more than an order of magnitude less cytotoxic”.
With `Cl.N[C@@H](Cc1ccc(N(CCCl)CCCl)cc1)C(=O)OCCC(F)(F)C(F)(F)C(F)(F)C(F)(F)C(F)(F)C(F)(F)C(F)(F)C(F)(F)F` [Compound 3e], the 50% inhibitory concentration (IC50) in data set [4] (setting [8]) came out at 4.4 ± 0.3 µM; in data set [4] (setting [9]), 4.5 ± 0.1 µM; in data set [2] (setting [6]), 6.6 ± 0.4 µM; in data set [2] (setting [7]) it was 13 ± 0.4 µM; in data set [5] (setting [10]), 42.3 ± 6 µM; in data set [5] (setting [11]), 52.8 ± 9.3 µM. Also, in data set [3], the “extent of ester cleavage in oligonucleotide adducts (ESI-MS)” value was “more significant”. Besides, in data set [2], the “fold increase in cytotoxicity (lower IC50) compared to melphalan” value is 5 to 10 fold and 5 fold. Besides, the “cytotoxicity at the elevated temperature relative to 37 °C” value in data set [2] is given as “approximately twice as cytotoxic”. Also, the “cytotoxicity to healthy RPE1 cells relative to tumoral Y79 cells (selectivity)” value in data set [5] is “more than an order of magnitude less cytotoxic”.
With `N[C@@H](Cc1ccc(N(CCCl)CCCl)cc1)C(=O)O` [Melphalan], in data set [3], the “adduct formation with the dsDNA oligonucleotide (ESI-MS)” value is recorded as “formed adducts with both strands of the oligonucleotides”. The results for the IC50 in data set [2] (setting [6]) and in data set [2] (setting [7]) were 26 ± 2 µM and 59 ± 5 µM, respectively.
On to `N[C@@H](Cc1ccc(N(CCCl)CCCl)cc1)C(=O)OCCC(F)(F)C(F)(F)F` [Compound 3b], for which the IC50 in data set [2] (setting [6]) turned out to be 1.8 ± 0.1 µM; in data set [2] (setting [7]), 2.2 ± 0.1 µM.
